Measured values taken from PMC9468151, “Identification of a binding site on soluble RANKL that can be targeted to inhibit soluble RANK-RANKL interactions and treat osteoporosis” (Nature Communications, 2022).
Several values for one entry are separate records, joined by “and”; a condition that tells them apart may be missing. Equal entries are not always repeated.

Tests used:
T lymphocyte = T lymphocyte cell proliferation assay (CFSE, CD4+/CD8+ flow cytometry); format: cell-based, human
Procedure: T lymphocyte cell proliferation assay was performed according to a reported method[58] with some modification. Briefly, 5 × 10^6 cells /mL cells were stained 2.5 μM CFSE (Tonbo Biosciences) and incubated at 37 °C for 12 min. Then washed and discarded the supernatant and adjusted the CFSE stained cell to 1.75 × 10^6 cells /mL. Cells were diluted in 1640 completed medium containing 5 μg/mL anti-CD3 antibody (Tonbo Biosciences) to 3 × 10^5 cells/mL and seed in a 96-well plate or 24-well plate that pre-packaged 0.4 μg/well anti-CD28 antibody and 1.6 μg anti-CD28 antibody (24-well) (Tonbo Biosciences). Cells were then cultured for 3 days, 9 days or 12 days. Subsequently, the proportion of CD4^+ and CD8^+ cells was determined by flow cytometry (Beckman Coulter, FC500) according to manufacturer’s instruction of PE-Cyanine7 anti-Human CD8a and PE anti-Human CD4 antibodies (Tonbo Biosciences). Data analyzing was performed by using CXP software (Beckman Coulter, Supplementary Fig. 8).

OVX rats = assay: Rat body weight and organ coefficients determination; format: in vivo; conditions: for body weight (fig. S7d): in g (unit assumed)
Procedure: We dissected all rats after 12 weeks of treatment, then took the main organs like heart, liver, spleen, lung, kidney, and thymus. All the organs were removed the attached adipose and weighted with an electronic balance (Sartorius, Germany). Mice spleen and cervical lymph node were also taken and weighted. Organ index (mg/g) was calculated as the following formula: Organ coefficients=Organweight(mg)/Ratormousetotalweight(g)

[1] = test system: osteoclast markers (DC-stamp, Ctsk, MMP9, Tracp, Oscar, Calcr); assay: RT-qPCR of osteoclast marker genes in BMMs; format: cell-based, mouse
Procedure: The mRNA expression level of S3-15 was measured by RT–qPCR as primary described. Total cellular RNA sample was prepared using RNAiso Plus, followed by reverse transcription with PrimeScript™ MixRT Master Mix reverse transcriptase kit. Then quantitative real-time PCR assays were performed with TB Green™ premix EX Taq™ II kit on an Applied Biosystems. […] signaling inhibiting effect was determined by western blotting. RAW264.7 cells were treated with 5 μM S3-15 with or without sRANKL (100 ng/mL) for 5, 10, 30 and 60 min after starved for 1 h. Then the cells were washed with cold PBS and lysed by RIPA Lysis Buffer. Cell lysates were then processed for Western Blotting analyses. Primary antibody binding was detected using rat secondary antibodies (1:5000) coupled with enhanced chemiluminescence (ECL) reagents (Thermo Scientific) and visualized on Tanon 5200. Primers used for qPCR and antibodies used for western blotting were seen supplementary materials for details.

[2] = Healthy donor 2, 9 day, S3-15 10
[3] = cancer patient donors 1, 3 day, S3-15 conc. 0.2
[4] = cancer patient donors 1, 3 day, S3-15 conc. 1
[5] = cancer patient donors 1, 3 day, S3-15 conc. 5
[6] = cancer patient donors 1, 3 day, S3-15 conc. 10
[7] = healthy donors 2, 9 day, S3-15 conc. 0.2
[8] = healthy donors 2, 9 day, S3-15 conc. 1
[9] = healthy donors 2, 9 day, S3-15 conc. 5
[10] = healthy donors 2, 9 day, S3-15 conc. 10
[11] = BMMs, 100 ng/mL sRANKL + S3-15, relative to vehicle
[12] = versus Vehicle, three replicates

CC(=O)/C(=N\Nc1ccccc1C(=O)O)C(=O)Nc1ccccn1 [S3-15]
CD8+ cells in total cells (%) (T lymphocyte; [2]): 61.43% and 57.64% and 58.69%
CD8+cells in CFSE-cells (%) (T lymphocyte; [2]): 58.1% and 47.19% and 40.24%
CFSE- cells in total cells (%) (T lymphocyte; [2]): 51.79% and 37.98% and 32.24%
CD4+cells in total cells (%) (T lymphocyte; [3]): 12.08% and 10.6% and 16.64% and 9.84%
CFSE-CD4+cells in CFSE-cells (%) (T lymphocyte; [3]): 2.66% and 4.81% and 10.71% and 8.92%
CD4+cells in total cells (%) (T lymphocyte; [4]): 18.36% and 15% and 12.2% and 13.48%
CFSE-CD4+cells in CFSE-cells (%) (T lymphocyte; [4]): 2.71% and 4.16% and 9.18% and 4.63%
CD4+cells in total cells (%) (T lymphocyte; [5]): 12.53% and 13.43% and 14.21% and 19.52%
CFSE-CD4+cells in CFSE-cells (%) (T lymphocyte; [5]): 4.9% and 5.71% and 2.54% and 4.68%
CD4+cells in total cells (%) (T lymphocyte; [6]): 8.57% and 13.89% and 11.58% and 13%
CFSE-CD4+cells in CFSE-cells (%) (T lymphocyte; [6]): 6.23% and 7.1% and 4.66% and 4.48%
CD4+cells in total cells (%) (T lymphocyte; healthy donors 1, 3 day, S3-15 conc. 0.2): 58.71% and 65.57% and 73.86% and 89.25%
CD4+cells in total cells (%) (T lymphocyte; healthy donors 1, 3 day, S3-15 conc. 1): 88.98% and 73.53% and 85.9% and 87.87%
CD4+cells in total cells (%) (T lymphocyte; healthy donors 1, 3 day, S3-15 conc. 5): 88.97% and 73.33% and 75.77% and 81.04%
CD4+cells in total cells (%) (T lymphocyte; healthy donors 1, 3 day, S3-15 conc. 10): 84.3% and 76.41% and 71.29%
CFSE-CD4+cells in CFSE-cells (%) (T lymphocyte; healthy donors 1, 12 day, S3-15 conc. 0.2): 11.71% and 10.81% and 13.35% and 13.65%
CFSE-CD4+cells in CFSE-cells (%) (T lymphocyte; healthy donors 1, 12 day, S3-15 conc. 1): 10.81% and 12.31% and 11.84% and 10.58%
CFSE-CD4+cells in CFSE-cells (%) (T lymphocyte; healthy donors 1, 12 day, S3-15 conc. 5): 11% and 11.24% and 11.79% and 10.58%
CFSE-CD4+cells in CFSE-cells (%) (T lymphocyte; healthy donors 1, 12 day, S3-15 conc. 10): 15.92% and 12.12% and 12.19% and 12.32%
CD4+cells in total cells (%) (T lymphocyte; [7]): 20.78% and 19.93% and 21.03%
CFSE-CD4+cells in CFSE-cells (%) (T lymphocyte; [7]): 37.84% and 45.82% and 32.47%
CD4+cells in total cells (%) (T lymphocyte; [8]): 25.04% and 25.92% and 25.62%
CFSE-CD4+cells in CFSE-cells (%) (T lymphocyte; [8]): 42.79% and 60.67% and 51.42%
CD4+cells in total cells (%) (T lymphocyte; [9]): 24.48% and 26.48% and 22.29%
CFSE-CD4+cells in CFSE-cells (%) (T lymphocyte; [9]): 46.81% and 55.67% and 30.69%
CD4+cells in total cells (%) (T lymphocyte; [10]): 21.17% and 21.09% and 21.21%
CFSE-CD4+cells in CFSE-cells (%) (T lymphocyte; [10]): 34.98% and 45.24% and 51.76%
lymphocyte proliferation (T lymphocyte; human lymphocytes, in words): did not change lymphocyte proliferation
organ coefficient, Heart (OVX rats; individual animals): 2.652 and 2.903 and 2.602 and 2.757 and 2.485 and 2.813 and 2.658 and 2.708 and 2.583
organ coefficient, Kidney (OVX rats; individual animals): 4.969 and 4.261 and 5.124 and 5.036 and 4.8723 and 5.304 and 5.021 and 5.76 and 4.3689
organ coefficient, Liver (OVX rats; individual animals): 19.7988 and 22.7088 and 21.1699 and 21.9894 and 21.577 and 21.8338 and 22.6442 and 26.0414 and 24.0486
organ coefficient, Lung (OVX rats; individual animals): 3.321 and 3.475 and 4.3001 and 4.037 and 3.68 and 3.867 and 3.796 and 3.612 and 2.629
organ coefficient, Spleen (OVX rats; individual animals): 1.37 and 1.538 and 1.519 and 1.351 and 1.314 and 1.243 and 1.454 and 1.422 and 1.469
organ coefficient, Thymus (OVX rats; individual animals): 0.5247 and 0.4616 and 0.2402 and 1.041 and 0.7463 and 1.3304 and 0.3322 and 0.6497 and 0.411
organ coefficient, Uterus (OVX rats; individual animals): 0.5222 and 0.6316 and 3.058 and 1.43 and 0.2827 and 0.6792 and 0.9495 and 1.366 and 2.466
body weight (fig. S7d) (OVX rats; week 12, individual animals): 538.3 and 392.8 and 372.2 and 391.4 and 440.6 and 486.3 and 462.8 and 403.8 and 390.8
body weight (fig. S7d) (OVX rats; week 16, individual animals): 559.2 and 407.9 and 470.2 and 373.7 and 449.4 and 404.7 and 487.3 and 429.1 and 417.2
body weight (fig. S7d) (OVX rats; week 20, individual animals): 573.2 and 404.5 and 481.5 and 392.5 and 442.6 and 406.7 and 502.6 and 448.2 and 400
body weight (fig. S7d) (OVX rats; week 24, individual animals): 583.9 and 392.6 and 476.6 and 387.2 and 432.3 and 403.3 and 500.6 and 445.5 and 415.3
osteoclastogenesis related gene expression without RANKL ([1]; BMMs without RANKL): cannot affect
Calcr mRNA expression [1, 11]: 452.218 and 472.155 and 436.053
Ctsk mRNA expression [1, 11]: 96.8459 and 61.7386 and 86.8018
DC-Stemp mRNA expression [1, 11]: 112.451 and 102.455 and 155.105
MMP9 mRNA expression [1, 11]: 167.711 and 113.637 and 211.945
Oscar mRNA expression [1, 11]: 160.036 and 111.839 and 197.432
Tracp mRNA expression [1, 11]: 180.942 and 181.792 and 170.309
Calcr relative expression (fig. S3i) [1, 12]: 0.46 and 0.59 and 1.1
Ctsk relative expression (fig. S3i) [1, 12]: 1.05 and 0.94 and 2.17
DC-Stamp relative expression (fig. S3i) [1, 12]: 0.75 and 0.62 and 1.46
MMP9 relative expression (fig. S3i) [1, 12]: 1.19 and 1.06 and 1.03
Oscar relative expression (fig. S3i) [1, 12]: 0.54 and 0.76 and 2.12
Tracp relative expression (fig. S3i) [1, 12]: 0.53 and 0.95 and 1.32
